According to US20240140953A1, “INHIBITORS OF MENIN-MLL INTERACTION” (BIOMEA FUSION, INC., priority 2018, published 2024):
Where two headings read alike, the source gives them in different places.

Columns and labels:
HL-60 = assay: Proliferation study, CellTiterGlo, 4 days (Example 102), HL-60; format: cell-based; conditions: HL-60, 4 days treatment; for HL-60 % max: maximal inhibition; for IC50: Homo sapiens, 96 h, CellTiterGlo
From the text: (§1) The objective of the study was to evaluate the ability of representative compounds of the present invention, inhibitors of Menin/MLL interaction to inhibit cell proliferation. The proliferation inhibitory effect was investigated in two human MLL-leukemia cells selected on the bases of MLL fusion protein and listed in Table 102. HL-60 cell line was used as negative control.
(§2) ATP is present in all metabolically active cells and is considered as a marker for cell viability and proliferation. The metabolic cell activity was determined using the CellTiter-Glo kit from Promega, an ATP monitoring system based on the production of luminescence by the reaction of ATP with added UltraGlo® recombinant luciferase (Kawano et al., 2016), according to the supplier's experimental recommendations.
(§3) The described assay evaluates the ability of 4 representative compounds to inhibit the cell proliferation in the human MLL-leukemia cells plus a negative control cell line.
(§4) The assay provides potency values (IC50) for each test compound at a single time point Day 4 (T4).
(§5) Seven concentrations of the compounds (2.00E-05-6.67E-06-2.22E-06-7.41E-07-2.47E-07-8.23E-08-2.74E-08M), were assessed in duplicate in an individual test occasion in all the cell lines. MI-503 (Borkin et al., 2015) was used as reference compound and was tested at the same concentrations as the NCEs. 100% of proliferation is represented by the untreated cells (0.2% DMSO). The cell growth was monitored up to 4 days in culture.
(§6) MV4-11, MOLM-13 and HL-60 cells (see Table 2) were maintained in RPMI-1640 medium (Invitrogen, Cat. n. 618700, Batch n. 1965930) supplemented with 10% of Heat Inactivated FBS (Invitrogen, Cat n. 10500, Batch n. 08Q8078K) and 1% Pen-Strep (Invitrogen, Cat. N. 15140, Batch n. 1910859) and cultured at 37° C. in a humidified incubator with 5% CO2. All the cell lines grow in suspension and the cell density was maintained in a range of 2×10^5-1×10^6 viable cells/ml. Cells were pelleted at 130 g×5 min and conditioned medium was used to dilute the cell suspension.
(§7) Test items were dissolved in glass vials at 10 mM in DMSO with purity ≥99.9% (Sigma, D8418, batch n. SHBH4245V) and stored at −20° C. in 1.5 mL Eppendorf tubes.
(§8) Serial dilutions 1 to 3 in DMSO 100% were prepared starting from a 10 mM stock solutions to generate 7 points concentration response curve (CRC).
(§9) For each plate to test, one 0.4 μL copy plate and four 0.3 μL copy plates were then stamped into 96-well plates not treated for cell adhesion (Sarstedt—cat.no. 82.1581.001) by acoustic liquid Handling, Echo, at a concentration which was 500 fold the final assay concentration. Stamped plates were stored at −20° C. The final concentrations for the reference compound, MI-503, and the test items were: 2.00E-05, 6.67E-06, 2.22E-06, 7.41E-07, 2.47E-07, 8.23E-08 and 2.74E-08 M.
(§10) Cells were plated in 96-well flat bottom microtiter plates at cell density of 15,000 cells/ml for HL-60, 1000 cells/ml for MOLM-13 and 10,000 cell/ml for MV4-11. Cells were treated with 0.2% DMSO (Sigma, D8418, batch n. SHBH4245V) or serial dilutions of compounds (0.027 μM-20 μM) in DMSO (0.2% final concentration). Cells were incubated in a 5% CO2 incubator at 37° C. for 4 days. A CellTiterGlo viability assay (Promega) was employed. Luminescence was read by using VictorV (Perkin Elmer) multilabel plate reader using the standard protocol for luminescence in 96 well plate. The experiment was performed in duplicate.
(§11) Data were expressed as % of inhibition compared to the 0.2% DMSO negative control, and was calculated as follows: […]
(§12) CRCs were analysed by GraphPad and IC50 values were calculated by non-linear regression using 4 parameter-logistic equation. IC50 (μM) values were reported in the final data table. The curve fittings were performed leaving free all the parameters. Any constrain were reported in the results table.

MOLM-13 = assay: Long term proliferation assay (Table 3A), MOLM-13; format: cell-based; conditions: Homo sapiens, 96 h; MOLM-13, Day 4; read-out: MOLM-13 Day 4 IC50
Experimental: (§13) Example 5b: IC50 determination of compounds of invention in various cell lines (Long Term Proliferation Assay)
(§14) The following 5 cell lines are used or can be used for the long term proliferation assay.
(§15) Compounds of invention are tested in the 5 suspension lines by 14-day long-term proliferation assay.
(§16) The compound is tested in 10-pt dose titration (client will determine the starting concentration and the dilution scheme) and the final DMSO concentration is kept at 0.2%.
(§17) Vehicle and media control are also included. All treatments are done in triplicate.
(§18) 3 plates are used for each cell line and 15 plates are used for the 5 cell lines.
(§19) • 1) On Day 0, in a flat bottom 96-well plate, add 100 μL of cells per well at the densities optimized. • 2) Prepare compounds in DMSO at 500× final concentration. Dilute the compounds with DMSO at the dilution. • 3) Dilute the compounds in media at 3×final concentration. Add 50 μL of compound or DMSO at 3× final concentration to each well. Final volume in each well is 150 μL, and final concentration of DMSO is 0.2%. Also include 3 untreated control wells, by adding 50 μL of media alone. 4) Incubate plates for 96 hours. • 5) Count the cells using the Acumen, with capabilities for 96-well plates. Pipette cells up and down to mix in each well, and add desired volume of cells to a new flat bottom poly-D-lysine 96-well plate. Add Calcein AM at 1 μM final concentration. Let cells sit at RT for 10 mins followed by a quick spin to get cells settled on the bottom of the wells. Incubate the plate for additional 40 mins in the incubator. Take out the plate and read by Acumen. Calculate the cell numbers taken into account the dilution factors. • 6) Split the master plate. To do this take the total viable cell count calculated using step 5). Take the average of the replicates for each dose in order to be used in splitting the cells. • 7) Use a 96 well V-bottom plate to spin down the cells to remove old media and compound to split the cells. Based on the split ratio place the proper amount of media and cells into the V-bottom plate, and spin the plate at 1100 rpm for 5 minutes. • 8) Following the spin remove the media, careful not to disturb the cellpellet. • 9) Re-suspend pellet in 100 μL fresh media, and add to a new 96-well flat bottom plate. • 10) Add fresh compound, in the same manner as Step 3). • 11) Incubate plates for 72 hours. Repeat steps 5)-10) on Day 7. • 12) Incubate plates for 96 hours. Repeat Step 5)-10) on Day 11. • 13) Incubate 72 hours and repeat step 5) to take a final count. • 14) Data Analysis
(§20) To calculate growth for days 4, 7, 11, and 14: • Calculate the split factor for day 4 to 7, day 7 to 11, and day 11-14.

MV-4-11 = assay: Long term proliferation assay (Table 3A), MV-4-11; format: cell-based; conditions: Homo sapiens, MV4-11; MV-4-11, Day 4; read-out: MV-4-11 Day 4 IC50
Experimental: as §13, §14, §15, §16, §17, §18, §19, §20

MV4-11 (MLL-AF4) = assay: Proliferation study, CellTiterGlo, 4 days (Example 102), MV4-11; format: cell-based, human; conditions: MV4-11, 4 days treatment; for IC50: Homo sapiens, MV4-11, 96 h, CellTiterGlo; for MV4-11 (MLL-AF4) % max: maximal inhibition
From the text: as §1, §2, §3, §4, §5, §6, §7, §8, §9, §10, §11, §12

MOLM-13 (MLL-AF9) = assay: Proliferation study, CellTiterGlo, 4 days (Example 102), MOLM-13; format: cell-based, human; conditions: MOLM-13, 4 days treatment; for IC50: Homo sapiens, 96 h, CellTiterGlo; for MOLM-13 (MLL-AF9) % max: maximal inhibition
From the text: as §1, §2, §3, §4, §5, §6, §7, §8, §9, §10, §11, §12

menin = menin (Homo sapiens (Human), UniProt O00255); assay: Kd (Table 3A); format: binding
menin, sequence (O00255 whole entry, species assumed): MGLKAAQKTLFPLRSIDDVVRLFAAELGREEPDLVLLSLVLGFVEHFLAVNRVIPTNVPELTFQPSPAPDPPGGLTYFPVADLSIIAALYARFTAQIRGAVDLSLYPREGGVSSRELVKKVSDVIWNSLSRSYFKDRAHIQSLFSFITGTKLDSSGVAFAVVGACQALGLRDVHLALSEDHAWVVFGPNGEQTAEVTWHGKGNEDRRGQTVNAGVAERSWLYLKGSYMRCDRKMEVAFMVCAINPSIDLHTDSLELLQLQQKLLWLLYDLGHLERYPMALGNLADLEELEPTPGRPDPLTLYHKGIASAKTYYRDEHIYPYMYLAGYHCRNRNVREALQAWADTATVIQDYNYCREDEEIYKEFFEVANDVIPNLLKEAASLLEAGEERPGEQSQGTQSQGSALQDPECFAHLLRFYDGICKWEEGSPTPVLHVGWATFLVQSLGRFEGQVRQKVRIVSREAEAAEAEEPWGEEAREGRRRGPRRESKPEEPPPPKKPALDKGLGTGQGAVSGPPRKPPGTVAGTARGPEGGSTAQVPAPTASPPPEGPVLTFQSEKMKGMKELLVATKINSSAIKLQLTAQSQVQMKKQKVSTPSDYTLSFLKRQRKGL

[1] = read-out: HL-60 pIC50 (converted)
[2] = read-out: MV4-11 (MLL-AF4) IC50
[3] = read-out: MV4-11 (MLL-AF4) pIC50 (converted)
[4] = read-out: MOLM-13 (MLL-AF9) IC50
[5] = read-out: MOLM-13 (MLL-AF9) pIC50 (converted)

**Q.** Which results are given for `Cc1cn(-c2ncnc3[nH]c(-c4ccc(NC(=O)Cc5cc(-c6cccnc6)n[nH]5)cc4)cc23)cn1` [Compound 13, N-{4-[4-(4-methyl-1H-imidazol-1-yl)-7H-pyrrolo[2,3-d]pyrimidin-6-yl]phenyl}-2-[3-(pyridin-3-yl)-1H-pyrazol-5-yl]acetamide]?
**A.** HL-60 % max (HL-60): 112%; IC50 (HL-60; read-out: HL-60 IC50): 2.75 µM; IC50 (HL-60; [1]): 2.75 µM; IC50 (MOLM-13): 1.23 µM; IC50 (MV-4-11): 0.91 µM; IC50 (MV4-11 (MLL-AF4); [2]): 0.91 µM; IC50 (MV4-11 (MLL-AF4); [3]): 0.912 µM; MV4-11 (MLL-AF4) % max (MV4-11 (MLL-AF4)): 105%; IC50 (MOLM-13 (MLL-AF9); [4]): 1.23 µM; IC50 (MOLM-13 (MLL-AF9); [5]): 1.23 µM; MOLM-13 (MLL-AF9) % max (MOLM-13 (MLL-AF9)): 101%

**Q.** Which results are given for `O=C(Cc1cc(-c2cccnc2)n[nH]1)Nc1ccc(-c2cc3c(N4CCOCC4)ncnc3[nH]2)cc1` [Compound 10, N-{4-[4-(morpholin-4-yl)-7H-pyrrolo[2,3-d]pyrimidin-6-yl]phenyl}-2-[3-(pyridin-3-yl)-1H-pyrazol-5-yl]acetamide]?
**A.** HL-60 % max (HL-60): 65%; IC50 (HL-60; read-out: HL-60 IC50): 0.36 µM; IC50 (HL-60; [1]): 0.363 µM; IC50 (MOLM-13): 0.31 µM; IC50 (MV-4-11): 0.22 µM; Kd (menin): 2.7 ± 4 µM; IC50 (MV4-11 (MLL-AF4); [2]): 0.22 µM; IC50 (MV4-11 (MLL-AF4); [3]): 0.224 µM; MV4-11 (MLL-AF4) % max (MV4-11 (MLL-AF4)): 100%; IC50 (MOLM-13 (MLL-AF9); [4]): 0.31 µM; IC50 (MOLM-13 (MLL-AF9); [5]): 0.309 µM; MOLM-13 (MLL-AF9) % max (MOLM-13 (MLL-AF9)): 94%
